Source: patent US8546430B2, “Thalidomide analogs” (P2D, Inc., priority 2003, dated 2013)
“Also recorded” adds a separate entry of the source.

Key:
rat aortic ring = test: Rat aortic ring microvessel growth assay; type: cell-based; details: 0.1-20 μg/ml daily for 4 days; FIGS. 2-11
Protocol: The angiogenesis modulating activity of representative compounds was assessed in a rat aortic ring microvessel growth assay. Briefly, twelve-well tissue culture plates were coated with 250 μl of Matrigel (Becton-Dickinson, Bedford, Mass.) and allowed to gel for 30 min at 37° C. and 5% CO2. Thoracic aortas were excised from 8- to 10-week-old male Sprague Dawley rats. After careful removal of fibroadipose tissues, the aortas were cut into 1-mm-long cross-sections, placed on Matrigel-coated wells, and covered with an additional 250 μl of Matrigel. After the second layer of Matrigel had set, the rings were covered with EGM-II and incubated overnight at 37° C. and 5% CO2. EGM-II consists of endothelial cell basal medium (EBM-II; Clonetics, San Diego, Calif.) plus endothelial cell growth factors provided as the EGM-II Bulletkit (Clonetics). The culture medium was subsequently changed to EBM-II supplemented with 2% fetal bovine serum, 0.25 μg/ml amphotericin B, and 10 μg/ml gentamicin. Aortic rings were treated daily with either the vehicle (0.5% DMSO), carboxyamidotriazole (CAI, 12 μg/ml), thalidomide or thalidomide analogs (0.1-20 μg/ml) for 4 days and photographed on the 5th day using a ×2.5 objective. CAI, a known antiangiogenic agent, was used at higher than clinically achievable concentration as a positive control. Experiments were repeated four times using aortas from four different rats. The area of angiogenic sprouting, reported in square pixels, was quantified using Adobe PhotoShop. Further details of the method are provided in Luzzio et al., J Med Chem.; 46:3793-9, 2003, which is incorporated by reference herein. It should be understood that this method can be used as an assay to rapidly select compounds having a desired angiogenic or anti-angiogenic effect, for example, for use in the disclosed methods of treating a subject.

TNF-α = test: Inhibition of LPS-induced TNF-α secretion in human PBMC (ELISA); type: cell-based; details: for IC50 / inhibition at 30 µM / % Inhibition at 30 μM: LPS-induced TNF-α production in PBMC; for TNF-α inhibitory activity (in words): LPS-stimulated PBMC
Protocol: (§1) The action of the these thiothalidomide analogs in inhibiting TNF-α secretion was assessed in human peripheral blood mononuclear cells (PBMC) and the results are shown in Table 1. Freshly prepared PBMCs were utilized in all studies. Blood, 40 ml, was drawn from a volunteer, immediately mixed with 50 U/ml Na heparin and was diluted to 50 ml total volume with sterile PBS. Samples, 20 ml, of this preparation then were layered on 20 ml Ficoll-Paque and were centrifuged (800 g, 20 min). The Ficoll/serum interface, containing PBMCs, was collected, diluted to 200 ml with PBS, and then was centrifuged (800 g, 15 min) to pellet the cells. Thereafter, the recovered pellet was re-suspended in 37° C. tissue culture medium (RPMI/1 mM Sodium pyruvate/10% heat inactivated FBS/2 mM Glutamax) and placed on ice. Recovered cells were counted, pipetted (200 ul of 5×10^5/ml) into 96 well plates, and incubated for an hour (37° C., 5% CO2). Thereafter, appropriate concentrations of test compounds or vehicle (10 ul DMSO) were added to duplicate wells. Following a further hour of incubation, a 10 ul sample of lipopolysaccharide (LPS) (100 ng/ml in supplemented medium) or vehicle was added to induce stimulated and unstimulated cells, respectively, and the cells were incubated overnight. Sixteen hours later, supernatants were collected for quantification of TNF-α levels by ELISA assay (Pierce-Endogen human TNF-α mini kit, Rockford, Ill.) and the use of specific capture and detection monoclonal antibodies, M303E and M302B (Pierce-Endogen), respectively. ELISA plates were read at λ=450 nm and TNF-α levels were determined from a six-point calibration curve that was run concurrently with the test samples. The effect of test drug concentrations on the cellular viability of PBMCs was assessed by MTS assay (Promega, Madison, Wis.) of the cells that provided the supernatant samples assayed for TNF-α levels, described above. It should be understood that this method can be used to test any of the disclosed compounds as a screening assay for readily determining their TNF-α modulating activity, and for selecting them for use in the disclosed method of treating a subject.

PBMC = test: Cellular viability of PBMCs by MTS assay; type: cell-based, human
Protocol: as §1

| Compound | IC50 (TNF-α; Homo sapiens) [µM] | melting point [°C] | Angiogenic modulating activity (in words) (rat aortic ring) | inhibition at 30 µM (TNF-α; Homo sapiens) [%] | TNF-α inhibitory activity (in words) (TNF-α) | Toxicity / cytotoxicity (in words) (PBMC) | Cell viability at 0.3 μM (PBMC) [%] | Cell viability at 3 μM (PBMC) [%] | Cell viability at 30 μM (PBMC) [%] | further results |
| --- | --- | --- | --- | --- | --- | --- | --- | --- | --- | --- |
| CC12CCC(C(=O)NC3CCC(=O)NC3=O)(OC1=O)C2(C)C (centres unmarked) [3-Camphanic amino-2,6-piperidinedione] |  |  | potent angiogenic activity at all concentrations tested; also recorded: exhibited angiogenic activity |  |  |  |  |  |  |  |
| NC(=O)c1cc2ccccc2cc1C(=O)NC1CCC(=O)NC1=O (centres unmarked) [Compound 14, N-(2,6-dioxopiperidin-3-yl)-2,3-naphthalenedicarboxamide] |  | > 300 |  |  |  |  |  |  |  |  |
| S=C1c2ccccc2C(=S)N1C1CC=CCC1 (centres unmarked) [Compound 222, 2-(3-Cyclohexenyl)-1H-isoindol-1,3(2H)-dithione] |  |  | anti-angiogenic activity at higher concentrations and angiogenic activity at lower concentrations |  | active TNF-α inhibitors | some toxicity at 30 μM | 96 | 94 | 50 | IC50 (TNF-α): 15 µM; % Inhibition at 30 μM (TNF-α): 86% |
| COC(=O)CCC(C(=O)OC)N1C(=O)c2ccccc2C1=S (centres unmarked) [Compound 208, Dimethyl 2-(1,3-dihydro-1-oxo-3-thioxo-2H-isoindol-2-yl)-pentanedioate] | 20 |  |  | 56 |  | without toxicity | 96 | 99 | 93 |  |
| O=C1c2ccccc2C(=NCc2ccccc2)N1Cc1ccccc1 [Compound 210, 3-Benzylimino-2-benzyl-2,3-dihydroisoindol-1-one] |  |  | exhibited angiogenic activity |  |  |  |  |  |  |  |
| CC(=O)Oc1ccccc1C(=O)NC1CCC(=O)NC1=O (centres unmarked) [Compound 24, 2-acetoxy-N-(2,6-dioxopiperidin-3-yl)benzamide] |  |  | potent angiogenic activity |  |  |  |  |  |  |  |
| COc1ccc(N2C(=O)c3ccccc3C2=O)c(OC)n1 [Compound 5, 1,3-Dioxo-2-(2,6-dimethoxypyridin-3-yl)-isoindoline] |  |  | angiogenic activity at all concentrations tested |  |  |  |  |  |  |  |
| Br.COc1ccc(N2C(=O)c3ccccc3C2=O)c(O)n1 [Compound 6, 1,3-Dioxo-2-(2-hydroxy-6-methoxypyridin-3-yl)-isoindoline hydrobromide] |  |  | anti-angiogenic activity in the rat aortic ring assay at all concentrations tested |  |  |  |  |  |  |  |
| O=C1NC(=S)CCC1N1C(=O)c2ccccc2C1=O (centres unmarked) [Compound 205, 2-(2-Oxo-6-thioxo-3-piperidinyl)-1H-isoindole-1,3(2H)-dione] | > 30 | 225 to 226 | anti-angiogenic activity at higher concentration, and some angiogenic activity at lower concentrations | 31 |  |  | 96 | 90 | > 100 | Inhibition of TNF-α secretion at 30 μM (in words) (TNF-α): only marginal activity |
| Nc1ccc2c(=O)n(C3CCC(=O)NC3=O)c(=O)oc2c1 (centres unmarked) [Compound 228, 3-[2′,6′-piperidinedion-3′-yl]-7-amino-2H-1,3-benzoxazine-2,4(3H)-dione] |  |  |  |  | potent inhibitory action on TNF-α |  |  |  |  | EC50 (TNF-α; Homo sapiens, PBMC, TNF-α assay of Example 11): 0.4 µM |
| COC(=O)CCC(C(=O)OC)N1C(=S)c2ccccc2C1=S (centres unmarked) [Compound 209, Dimethyl 2-(1,3-dihydro-1,3-dithioxo-2H-isoindol-2-yl)-pentanedioate] | 10 |  |  | 85 |  | induced cellular toxicity at lower concentrations | 89 | 86 | 57 | Fold more potent than 208 (TNF-α; TNF-α inhibitory action): 2 fold |
| Monothiophthalimide [Compound 225] |  |  |  |  |  | without toxicity | 94 | 94 | > 100 | Inhibition of TNF-α secretion at 30 μM (in words) (TNF-α): marginal TNF-α activity; IC50 (TNF-α): > 30 µM; % Inhibition at 30 μM (TNF-α): 34% |

Now from value to compound, other results behind:

| IC50 (TNF-α; Homo sapiens) [µM] | melting point [°C] | Compound | Angiogenic modulating activity (in words) (rat aortic ring) | inhibition at 30 µM (TNF-α; Homo sapiens) [%] | TNF-α inhibitory activity (in words) (TNF-α) | Toxicity / cytotoxicity (in words) (PBMC) | Cell viability at 0.3 μM (PBMC) [%] | Cell viability at 3 μM (PBMC) [%] | Cell viability at 30 μM (PBMC) [%] | further results |
| --- | --- | --- | --- | --- | --- | --- | --- | --- | --- | --- |
| 16 | 67 to 68 | O=C1c2ccccc2C(=S)N1C1CC=CCC1 (centres unmarked) [Compound 223, 2,3-dihydro-3-thioxo-2-(3-cyclohexenyl)-1H-isoindol-1-one] |  | 85 | active TNF-α inhibitors | some toxicity at 30 μM | 99 | 89 | 57 |  |
|  | 114 | O=C1c2ccccc2C(=O)N1C1CC=CCC1 (centres unmarked) [Compound 221, 2-(3-Cyclohexenyl)-1H-isoindole-1,3(2H)-dione] |  |  |  |  |  |  |  |  |
| 3 |  | S=C1NC(=S)c2ccccc21 [Compound 224, dithiophthalimide] | angiogenic activity at all concentrations tested | 95 | potent activity | associated with toxicity at 30 μM | 83 | 83 | 54 |  |
| > 30 | 135 | O=C1CCCC(=S)N1 [Compound 218, 6-Thioxo-2-piperidinone] |  | 15 |  |  | 86 | 84 | > 100 | Inhibition of TNF-α secretion at 30 μM (in words) (TNF-α): minimally inhibited TNF-α secretion |
| > 30 | 157 | O=C(O)CCC(C(=O)O)N1C(=O)c2ccccc2C1=S (centres unmarked) [Compound 211, 2-(1,3-Dihydro-1-oxo-3-thioxo-2H-isoindol-2-yl)-pentanedioic acid] | angiogenic activity at all concentrations tested | 20 | lowered potency |  | 93 | 93 | 86 |  |
| > 30 | 255 | O=C1CCC(N2C(=O)c3ccccc3C2=S)C(=O)N1 (centres unmarked) [Compound 212, 2,3-Dihydro-3-thioxo-2-(2,6-dioxo-3-piperidinyl)-1H-isoindol-1-one] |  | 23 |  |  | 94 | 100 | 94 | Inhibition of TNF-α secretion at 30 μM (in words) (TNF-α): only marginal activity |
| 20 | 263 to 265 | O=C1c2ccccc2C(=O)N1C1CCC(=S)NC1=S (centres unmarked) [Compound 213, 2-(2,6-Dithioxo-3-piperidinyl)-1H-isoindole-1,3(2H)-dione] | anti-angiogenic activity at all concentrations tested | 52 | less active than dithioglutarimide 219 | induced increasing cytotoxicity at higher concentrations; also recorded: induces toxicity at high concentration | 94 | 87 | 69 |  |
